Test systems include A498 renal; HOP-62 NSCLC; HT29 colon; OVCAR-4 ovarian; PC-3 prostate; RXF 393 renal; SK-OV-3 ovarian; SN12C renal; TK-10 renal; UACC-62 melanoma.
Assay in all cases: NCI tumour cell line growth inhibition, 48 h

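Where inhibition never reached the appropriate level, the endpoint shown equals the highest concentration tested. Otherwise, values were interpolated linearly from a five-concentration, 48-hour dose response in 96-well plates. Abbreviation: GI50, concentration required for 50% inhibition of growth. At the TGI there is no net growth.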

As to `CCn1cnc(C[C@H](NC(=O)[C@H](CCCCNC(=O)Nc2cc(C(F)(F)F)cc(C(F)(F)F)c2)NC(=O)Nc2cc(C(F)(F)F)cc(C(F)(F)F)c2)C(=O)OC)c1`, the GI50 in the assay with A498 renal is above 10 µM; in the assay with HOP-62 NSCLC it was 9.32 µM; in the assay with HT29 colon, 3.97 µM; with OVCAR-4 ovarian, 3.51 µM; with PC-3 prostate, 2.82 µM; in the assay on RXF 393 renal, 4.24 µM. The GI50 in the assay on SK-OV-3 ovarian was above 10 µM; with SN12C renal, 5.69 µM; in the assay with TK-10 renal, 7.46 µM; with UACC-62 melanoma it was above 10 µM. For the same compound, the TGI in the assay on A498 renal, in the assay with HOP-62 NSCLC, in the assay with HT29 colon, in the assay on OVCAR-4 ovarian, with PC-3 prostate and with RXF 393 renal was above 10 µM throughout. Also, the TGI in the assay with SK-OV-3 ovarian, in the assay on SN12C renal, in the assay on TK-10 renal and in the assay on UACC-62 melanoma was above 10 µM each time.

On to `Cc1cccc(C(C)(C)C)c1NC(=O)C(C#N)C1=C(Cl)C(=O)c2ccccc2C1=O` (centres undefined), for which the TGI in the assay on A498 renal amounted to 44.4 µM; in the assay with HOP-62 NSCLC, 32.2 µM; in the assay with HT29 colon, 40.7 µM; in the assay with OVCAR-4 ovarian, 28.9 µM; with PC-3 prostate, 26.3 µM; in the assay with RXF 393 renal, 30.6 µM. In addition, the TGI in the assay with SK-OV-3 ovarian came to 40.2 µM; in the assay on SN12C renal, 31.5 µM; in the assay on TK-10 renal, 33.3 µM; in the assay on UACC-62 melanoma it was 32.5 µM.

With `CN1CCN(CCCOc2cccc3nc(Nc4cc(Cl)cc(Cl)c4)ccc23)CC1`, the GI50 in the assay on A498 renal was 1.78 µM; in the assay with HOP-62 NSCLC it was 1.37 µM; in the assay with HT29 colon it was 1.41 µM; with OVCAR-4 ovarian it was 2.55 µM; in the assay with PC-3 prostate, 1.76 µM; with RXF 393 renal, 1.67 µM. Also, the GI50 in the assay with SK-OV-3 ovarian is 1.76 µM; in the assay with SN12C renal, 3.74 µM; in the assay on TK-10 renal, 1.75 µM; in the assay with UACC-62 melanoma, 1.95 µM. Also, the TGI is 3.51 µM in the assay on A498 renal; 2.81 µM with HOP-62 NSCLC; 2.78 µM in the assay on HT29 colon; 8.14 µM with OVCAR-4 ovarian; 3.29 µM in the assay on PC-3 prostate; 3.22 µM in the assay on RXF 393 renal. Besides, the TGI was found to be 3.3 µM with SK-OV-3 ovarian, 13.9 µM with SN12C renal, 3.17 µM with TK-10 renal and 3.68 µM in the assay on UACC-62 melanoma.

As to `Oc1ccc(NC(=S)Nc2ccccc2)cc1`, the GI50 in the assay on A498 renal, with HOP-62 NSCLC, in the assay on HT29 colon, in the assay on OVCAR-4 ovarian, in the assay with PC-3 prostate and in the assay on RXF 393 renal was above 100 µM in each case. Also, the GI50 in the assay on SK-OV-3 ovarian, in the assay with SN12C renal, in the assay on TK-10 renal and with UACC-62 melanoma was above 100 µM each time. Further, the TGI with A498 renal, with HOP-62 NSCLC, in the assay on HT29 colon, in the assay with OVCAR-4 ovarian, with PC-3 prostate and with RXF 393 renal was above 100 µM throughout. Further, the TGI in the assay on SK-OV-3 ovarian, in the assay on SN12C renal, with TK-10 renal and with UACC-62 melanoma was above 100 µM each time.

Consider `CC(C)C[C@H](CC(=O)O)C(=O)N[C@@H](Cc1c[nH]c2ccccc12)C(=O)N[C@@H](C)c1ccccc1`, for which the GI50 with A498 renal, in the assay with HOP-62 NSCLC, in the assay with HT29 colon, in the assay on OVCAR-4 ovarian, with PC-3 prostate and in the assay with RXF 393 renal was above 25 µM each time. In addition, the GI50 in the assay on SK-OV-3 ovarian, in the assay on SN12C renal, in the assay on TK-10 renal and in the assay on UACC-62 melanoma was above 25 µM each time. The TGI in the assay on A498 renal, with HOP-62 NSCLC, with HT29 colon, in the assay on OVCAR-4 ovarian, with PC-3 prostate and in the assay on RXF 393 renal was above 25 µM throughout. In addition, the TGI in the assay on SK-OV-3 ovarian, in the assay with SN12C renal, in the assay on TK-10 renal and in the assay on UACC-62 melanoma was above 25 µM each time.

As to `C[C@@H]1CC[C@H]2[C@@H](C)C(O)O[C@@H]3O[C@]4(C)CC[C@@H]1[C@]32OO4` (some centres undefined), the GI50 is 2.89 µM in the assay on A498 renal; 2.99 µM in the assay on HOP-62 NSCLC; 0.634 µM in the assay on HT29 colon; 2.43 µM in the assay with OVCAR-4 ovarian; 0.0662 µM in the assay on PC-3 prostate; 1.15 µM in the assay on RXF 393 renal. In addition, the GI50 is 11.8 µM in the assay with SK-OV-3 ovarian, 1.37 µM in the assay with SN12C renal, 0.854 µM in the assay with TK-10 renal and 0.56 µM in the assay with UACC-62 melanoma. Further, the TGI with A498 renal is above 96.6 µM; in the assay with HOP-62 NSCLC, 18.7 µM; with HT29 colon it was 13.5 µM; with OVCAR-4 ovarian, above 56.7 µM; in the assay with PC-3 prostate, above 43.3 µM; with RXF 393 renal, 17.8 µM. Also, the TGI in the assay with SK-OV-3 ovarian was above 60.3 µM; in the assay with SN12C renal it was above 72.3 µM; with TK-10 renal it was 9.64 µM; with UACC-62 melanoma it was above 76.9 µM.

`N#C/C(=C\c1ccc(O)c(O)c1)C(=O)NCc1ccc(C(F)(F)F)cc1`: the GI50 is 16 µM in the assay on A498 renal; 9.48 µM with HOP-62 NSCLC; 15.7 µM with HT29 colon; 13.3 µM in the assay with OVCAR-4 ovarian; 30.1 µM in the assay on PC-3 prostate; 12.2 µM in the assay on RXF 393 renal. Besides, the GI50 is 16.6 µM in the assay on SK-OV-3 ovarian, 4.06 µM in the assay on SN12C renal and 4.25 µM with UACC-62 melanoma. Moreover, the TGI in the assay with A498 renal was 36.1 µM; in the assay on HOP-62 NSCLC it was 26.9 µM; in the assay with HT29 colon, 50.7 µM; in the assay with OVCAR-4 ovarian it was above 71.9 µM; in the assay with PC-3 prostate it was above 100 µM; in the assay on RXF 393 renal, 41 µM. For the same compound, the TGI with SK-OV-3 ovarian worked out at 61.4 µM; in the assay with SN12C renal, 18.8 µM; with TK-10 renal, 10.4 µM; in the assay with UACC-62 melanoma, 13.9 µM.

Values taken from PubChem BioAssay (NCI).
